Structures can show the parent of a compound that is named as a salt.
Test system: human prostate cancer LNCaP cells
Test: Antiproliferative effect in LNCaP cells (CellTiter-Glo, 6 days)
Format: cell-based
Conditions: 144 h
Protocol: In this experiment, the inhibitory effect of the test compound on cell proliferation in human prostate cancer LNCaP cells was detected.
The tumor cell lines were cultured in a 37° C., 5% CO2 incubator under the above culture conditions. Regular passage, and cells in logarithmic growth phase were taken for plating.
2. Cell Plating • (1) Cells were stained with trypan blue and viable cells were counted; • (2) the cell concentration was adjusted to an appropriate concentration;
• (3) 90 μL of cell suspension per well was added to the culture plate as shown in the table above, and cell-free culture medium was added to the blank control well; • (4) the culture plate was cultured overnight in a 37° C., 5% CO2 incubator with 100% relative humidity.
Preparation of stock solution storage plate with 400 times the initial concentration of the compound: The compound was serially diluted with DMSO from the highest concentration to the lowest concentration. The solution was prepared as needed each time.
Preparation of Working Solution with 10 Times the Initial Concentration of Compounds and Cell Treatment with Compounds • (1) To a V-bottom 96-well plate was added 78 μL of cell culture medium, and 2 μL of compound was pipetted from a stock solution storage plate with 400 times the initial concentration of the compound and added to the cell culture medium of the 96-well plate. To vehicle control and blank control was added 2 μL of DMSO. After the compound or DMSO was added, blowing with a pipette and mixing well were carried out. • (2) Administration: 10 μL of a working solution with 10 times the initial concentration of the compound was added to the cell culture plate. To vehicle control and blank control was added 10 μL of DMSO-cell culture medium mixture. • (3) The 96-well plate was returned to the incubator and cultured for 6 days.
The following steps were performed according to the instructions of Promega CellTiter-Glo luminescent cell viability assay kit (Promega-G7573). • (1) CellTiter-Glo buffer was melted and brought to room temperature; • (2) CellTiter-Glo substrate was brought to room temperature; • (3) CellTiter-Glo working solution was prepared by adding 100 mL of CellTiter-Glo buffer to a vial of CellTiter-Glo substrate to dissolve the substrate; • (4) the mixture was slowly vortexed and shaken to be fully dissolved; • (5) the cell culture plate was taken out and left for 30 minutes to equilibrate to room temperature; • (6) 50 μL of CellTiter-Glo working solution was added per well (equal to half the volume of cell culture medium per well). The cell plate was wrapped in aluminum foil to be protected from light; • (7) the culture plate was shaken on an orbital shaker for 2 minutes to induce cell lysis; (8) the culture plate was left at room temperature for 10 minutes to stabilize the luminescent signal; • (9) the luminescent signal was detected on a 2104 EnVision plate reader.
The inhibition rate (IR) of the test compound was calculated using the following formula: IR (%)=(RLU vehicle control−RLU compound)/(RLU vehicle control−RLU blank control)×100%. The inhibition rates of compounds at different concentrations were calculated in Excel, and then GraphPad Prism software was used to plot inhibition curves and calculate relevant parameters, including minimum inhibition rate, maximum inhibition rate, and ICSO.

SMILES | IC50 [nM]
N#Cc1ccc(O[C@H]2CC[C@H](NC(=O)c3ccc(N4CCC(CN5CCN(c6cccc7c6ccc6occ(C8CCC(=O)NC8=O)c67)CC5)CC4)nn3)CC2)cc1Cl (some centres unmarked) [Hydrochloride of WX015] | 45
CC1(C)C(=O)N(c2ccc(C#N)c(C(F)(F)F)c2)C(=S)N1c1ccc(OCCN2CCN(CC(=O)Nc3ccc4c(C5CCC(=O)NC5=O)coc4c3)CC2)c(F)c1 (centres unmarked) [WX002] | 46

Reference: patent US20240190851A1, “FURAN FUSED RING-SUBSTITUTED GLUTARIMIDE COMPOUND” (MEDSHINE DISCOVERY INC., priority 2021, published 2024)
